The values that follow come from the supplement of paper PMC10307832.

Experiment in all cases: relative viability (nuclei count vs DMSO), 5 days (fraction); higher = more cells survive
Compound in the experiment “4EGI-1 + Tozasertib”: O=C(O)C(Cc1ccccc1[N+](=O)[O-])=NNc1nc(-c2ccc(Cl)c(Cl)c2)cs1 (mixture of isomers) [4EGI-1] + Cc1cc(Nc2cc(N3CCN(C)CC3)nc(Sc3ccc(NC(=O)C4CC4)cc3)n2)n[nH]1 [Tozasertib] (partner 0.1 µM)
In a few lines: (§1)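 Relative viability equals treated-well nuclei counts divided by vehicle-well nuclei counts. Counts came from 4× images of lung cancer cell lines grown in 1536-well plates for 5 days after pin-tool dosing on the day after seeding. Dosing used one drug alone or a fixed anchor-drug dose plus five library-drug doses (not always all listed) in √10 steps, and values are medians of duplicate plates.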

Compound in the experiment “4EGI-1 + Phenformin”: O=C(O)C(Cc1ccccc1[N+](=O)[O-])=NNc1nc(-c2ccc(Cl)c(Cl)c2)cs1 (mixture of isomers) [4EGI-1] + N=C(N)NC(=N)NCCc1ccccc1 [Phenformin] (partner 250 µM)
In a few lines:
as §1

Compound in the experiment “4EGI-1 + Palbociclib”: O=C(O)C(Cc1ccccc1[N+](=O)[O-])=NNc1nc(-c2ccc(Cl)c(Cl)c2)cs1 (mixture of isomers) [4EGI-1] + CC(=O)c1c(C)c2cnc(Nc3ccc(N4CCNCC4)cn3)nc2n(C2CCCC2)c1=O [Palbociclib] (partner 0.5 µM)
In a few lines:
as §1

Compound in the experiment “4EGI-1 + Alpelisib”: O=C(O)C(Cc1ccccc1[N+](=O)[O-])=NNc1nc(-c2ccc(Cl)c(Cl)c2)cs1 (mixture of isomers) [4EGI-1] + Cc1nc(NC(=O)N2CCC[C@H]2C(N)=O)sc1-c1ccnc(C(C)(C)C(F)(F)F)c1 [Alpelisib] (partner 2 µM)
In a few lines: as §1

Take NCI-H520: the relative viability with 4EGI-1 + Tozasertib (first compound 0.5 µM) came to 0.47; with 4EGI-1 + Tozasertib (first compound 1.581 µM), 0.496; with 4EGI-1 + Tozasertib (first compound 5 µM), 0.499; with 4EGI-1 + Tozasertib (first compound 15.81 µM), 0.385; with 4EGI-1 + Tozasertib (first compound 50 µM), 0.371; with 4EGI-1 + Phenformin (first compound 0.5 µM) it was 0.866. Further, the relative viability with 4EGI-1 + Phenformin (first compound 1.581 µM) turned out to be 0.589; with 4EGI-1 + Phenformin (first compound 5 µM) it was 0.703; with 4EGI-1 + Phenformin (first compound 15.81 µM) it was 0.669; in the experiment with 4EGI-1 + Phenformin (first compound 50 µM) it was 0.191; in the experiment with 4EGI-1 + Palbociclib (first compound 0.5 µM) it was 0.27; with 4EGI-1 + Palbociclib (first compound 1.581 µM) it was 0.225. Moreover, the relative viability with 4EGI-1 + Palbociclib (first compound 5 µM) was found to be 0.266; with 4EGI-1 + Palbociclib (first compound 15.81 µM), 0.223; in the experiment with 4EGI-1 + Palbociclib (first compound 50 µM), 0.105; in the experiment with 4EGI-1 + Alpelisib (first compound 0.5 µM) it was 0.918; with 4EGI-1 + Alpelisib (first compound 1.581 µM), 0.754; with 4EGI-1 + Alpelisib (first compound 5 µM), 1.02. Further, the figures for the relative viability in the experiment with 4EGI-1 + Alpelisib (first compound 15.81 µM) and in the experiment with 4EGI-1 + Alpelisib (first compound 50 µM) were 0.866 and 0.543, respectively.
On to NCI-H1944, for which the relative viability with 4EGI-1 + Tozasertib (first compound 0.5 µM) came to 0.262; with 4EGI-1 + Tozasertib (first compound 5 µM), 0.241; with 4EGI-1 + Tozasertib (first compound 15.81 µM) it was 0.192; with 4EGI-1 + Tozasertib (first compound 50 µM), 0.202; with 4EGI-1 + Phenformin (first compound 0.5 µM) it was 0.206; with 4EGI-1 + Phenformin (first compound 5 µM) it was 0.207. Besides, the relative viability with 4EGI-1 + Phenformin (first compound 15.81 µM) was 0.185; in the experiment with 4EGI-1 + Phenformin (first compound 50 µM) it was 0.191; in the experiment with 4EGI-1 + Palbociclib (first compound 0.5 µM), 0.404; with 4EGI-1 + Palbociclib (first compound 5 µM), 0.33; with 4EGI-1 + Palbociclib (first compound 15.81 µM), 0.273; in the experiment with 4EGI-1 + Palbociclib (first compound 50 µM) it was 0.252. Also, the relative viability with 4EGI-1 + Alpelisib (first compound 0.5 µM) came to 0.86; with 4EGI-1 + Alpelisib (first compound 5 µM) it was 0.796; with 4EGI-1 + Alpelisib (first compound 15.81 µM), 0.642; in the experiment with 4EGI-1 + Alpelisib (first compound 50 µM), 0.672.
Take RERF-LC-KJ: the relative viability in the experiment with 4EGI-1 + Tozasertib (first compound 0.5 µM) was determined as 0.547; with 4EGI-1 + Tozasertib (first compound 5 µM), 0.425; in the experiment with 4EGI-1 + Tozasertib (first compound 15.81 µM), 0.363; with 4EGI-1 + Tozasertib (first compound 50 µM) it was 0.216; with 4EGI-1 + Phenformin (first compound 0.5 µM), 0.412; with 4EGI-1 + Phenformin (first compound 5 µM), 0.442. The relative viability with 4EGI-1 + Phenformin (first compound 15.81 µM) was 0.354; with 4EGI-1 + Phenformin (first compound 50 µM) it was 0.333; with 4EGI-1 + Palbociclib (first compound 0.5 µM), 1.09; in the experiment with 4EGI-1 + Palbociclib (first compound 1.581 µM), 0.481; in the experiment with 4EGI-1 + Palbociclib (first compound 5 µM) it was 0.953; with 4EGI-1 + Palbociclib (first compound 15.81 µM), 0.882. The relative viability was 0.625 with 4EGI-1 + Palbociclib (first compound 50 µM); 0.924 with 4EGI-1 + Alpelisib (first compound 0.5 µM); 0.728 in the experiment with 4EGI-1 + Alpelisib (first compound 5 µM); 0.677 in the experiment with 4EGI-1 + Alpelisib (first compound 15.81 µM); 0.659 with 4EGI-1 + Alpelisib (first compound 50 µM).
With NCI-H2085, the relative viability with 4EGI-1 + Tozasertib (first compound 0.5 µM) amounted to 0.835; with 4EGI-1 + Tozasertib (first compound 1.581 µM), 0.859; in the experiment with 4EGI-1 + Tozasertib (first compound 5 µM), 0.836; with 4EGI-1 + Tozasertib (first compound 15.81 µM), 0.724; in the experiment with 4EGI-1 + Tozasertib (first compound 50 µM), 0.775; with 4EGI-1 + Phenformin (first compound 0.5 µM), 0.8. Also, the relative viability came out at 0.795 with 4EGI-1 + Phenformin (first compound 1.581 µM); 0.823 with 4EGI-1 + Phenformin (first compound 5 µM); 0.536 with 4EGI-1 + Phenformin (first compound 15.81 µM); 0.404 with 4EGI-1 + Phenformin (first compound 50 µM); 0.518 with 4EGI-1 + Palbociclib (first compound 0.5 µM); 0.462 with 4EGI-1 + Palbociclib (first compound 1.581 µM). Also, the relative viability in the experiment with 4EGI-1 + Palbociclib (first compound 5 µM) turned out to be 0.453; in the experiment with 4EGI-1 + Palbociclib (first compound 15.81 µM), 0.474; with 4EGI-1 + Palbociclib (first compound 50 µM), 0.339; with 4EGI-1 + Alpelisib (first compound 0.5 µM) it was 1.19; with 4EGI-1 + Alpelisib (first compound 1.581 µM), 1; with 4EGI-1 + Alpelisib (first compound 5 µM) it was 1.03. Also, the relative viability with 4EGI-1 + Alpelisib (first compound 15.81 µM) is 0.831; with 4EGI-1 + Alpelisib (first compound 50 µM) it was 0.626.
As for NCI-H661, the relative viability came out at 0.336 with 4EGI-1 + Tozasertib (first compound 0.5 µM); 0.34 with 4EGI-1 + Tozasertib (first compound 1.581 µM); 0.34 with 4EGI-1 + Tozasertib (first compound 5 µM); 0.355 with 4EGI-1 + Tozasertib (first compound 15.81 µM); 0.283 with 4EGI-1 + Tozasertib (first compound 50 µM); 0.274 with 4EGI-1 + Phenformin (first compound 0.5 µM). In addition, the relative viability with 4EGI-1 + Phenformin (first compound 1.581 µM) was determined as 0.267; with 4EGI-1 + Phenformin (first compound 5 µM), 0.297; with 4EGI-1 + Phenformin (first compound 15.81 µM), 0.274; with 4EGI-1 + Phenformin (first compound 50 µM), 0.243; in the experiment with 4EGI-1 + Palbociclib (first compound 0.5 µM), 0.454; with 4EGI-1 + Palbociclib (first compound 1.581 µM), 0.413. Besides, the relative viability came out at 0.385 with 4EGI-1 + Palbociclib (first compound 5 µM); 0.31 with 4EGI-1 + Palbociclib (first compound 15.81 µM); 0.284 with 4EGI-1 + Palbociclib (first compound 50 µM); 0.82 in the experiment with 4EGI-1 + Alpelisib (first compound 0.5 µM); 0.446 with 4EGI-1 + Alpelisib (first compound 1.581 µM); 1.26 with 4EGI-1 + Alpelisib (first compound 5 µM). Besides, the relative viability is 0.535 with 4EGI-1 + Alpelisib (first compound 15.81 µM) and 0.229 in the experiment with 4EGI-1 + Alpelisib (first compound 50 µM).
